{"source": "patent US20240010726A1", "about": "“LFA-1 SIGNALLING MEDIATOR FOR USE IN CANCER THERAPY” (Universität Basel, priority 2020, published 2024)", "key": {"PHA T cell blasts": {"system": "PHA T cell blasts", "assay": "CD69 expression of PHA T cell blasts at increasing plate-bound anti-CD3 mAb", "assay_type": "cell-based, human", "conditions": "augmenting concentrations of plate-bound anti-CD3 mAb; ±Mg^2+", "protocol": "FIG. 4: Magnesium regulates LFA-1 mediated T cell activation and cytotoxicity within physiologic range • (a) Metabolic flux analysis of human EM CD8 T cells upon supra-physiologic activation with anti-CD3 and anti-CD28 Ab, and additional injection of secondary, cross-linking anti-CD3/28 Ab, in medium containing 1.2 mM Mg^2+, 0 mM Mg^2+, or medium which was reconstituted to 1.2 mM Mg^2+ immediately prior to activation (0→1.2 mM Mg^2+). Pooled results from n=6 healthy donors from 3 independent experiments. (b) CD69 expression of PHA T cell blasts upon activation with indicated concentrations of plate-bound anti-CD3 mAb in ±Mg^2+ containing medium. (c) Caspase-3 activity in EL4 target cells after co-culture for 4 hours with murine WT and LFA-1^−/− CTLs in medium containing 1.2 mM Mg^2+ or 0 mM Mg^2+, in presence of PHA at the indicated concentrations. The effector to target cell ratio was 3:1. Pooled results, n=3-4, from 2 independent experiments. (d) Cytotoxicity assay using WT and LFA-1^−/− OT1 CTLs, co-cultured for 4 hours in medium containing 1.2 mM Mg^2+ or 0 mM Mg^2+ with luciferase-expressing EL4 target cells (pulsed with altered OVA peptides at 10^−6 M). Cytotoxicity was quantified after adding luciferin to medium and measuring luminescent signal intensity. […] Cytotoxicity was quantified after adding luciferin to medium and measuring luminescent signal intensity. […]"}, "MC38-OVA tumor cells": {"system": "MC38-OVA tumor cells", "assay": "Murine MC38-OVA tumor model, in vivo CD8+ T cell depletion", "conditions": "OVA immunized mice; 3 mM MgCl2 vs NaCl i.t.; anti-CD8a Ab 10 mg kg^−1 i.p. weekly", "protocol": "FIG. 1: Intratumoral magnesium administration improves adaptive anti-tumor immunity. (a) Schematic of experimental design. B1/6 mice, either immunized with OVA or left untreated, were inoculated subcutaneously with MC38-OVA tumor cells bilaterally on the flanks. From day 7, injection of 3 mM NaCl solution was applied in left flank tumor, whereas 3 mM MgCl2 solution was injected in contralateral tumor. This regimen was repeated every third day for a total of 8 cycles. (b) Tumor growth curves in non-immunized mice (n=20) (left panel), and immunized mice (n=19) (right panel). (c) Tumor growth curves in ±CD8 depleted mice (n=6-17). Results were pooled from 2 independent experiments, with n=6-12 mice each. (d) Absolute numbers of tumor-infiltrating CD8^+ T cells. (e) Number of tumor-infiltrating CD8^+ T cells positive for Ki67 (left panel), Granzyme B (middle panel) and CD25 (right panel). (f) Cell number of tumor-infiltrating CD8^+ T cells expressing PD-1 and Tim3. (g) Schematic of experimental design. B1/6 mice, immunized with OVA, were inoculated subcutaneously with MC38-OVA tumor cells unilaterally on the flank. From day 5, intratumoral injections of either 3 mM NaCl or 3 mM MgCl2 were initiated, and repeated every third day for 8 cycles. Mice were additionally injected with 200 μg i.p. of isotype control (IgG2a) or anti-PD-1 Ab on day 9, 12, and 15. […]"}}, "data": [{"smiles": "[Mg+2]", "note": "[Mg^2+, Magnesium]", "values": [{"measurement": "CD69 expression of PHA T cell blasts", "setting": "PHA T cell blasts", "value": "less pronounced dependence"}, {"measurement": "Tumor growth in ±CD8 depleted mice", "setting": "MC38-OVA tumor cells", "value": "exerted its effect via CD8^+ T cells"}]}]}
